{"source": "paper PMC5537589", "about": "“A peptide-based viral inactivator inhibits Zika virus infection in pregnant mice and fetuses” (Nature Communications, 2017)", "key": {"[1]": {"test": "in vivo", "conditions": "SD, rat, iv, 10 mg kg-1"}, "[2]": {"test_system": "mouse red blood cells", "conditions": "concentration as high as 100 μM; 2% mouse RBC, 1 h, 37 °C; A560"}, "[3]": {"conditions": "100 μg Z2-Cy5 i.v.; male ICR mice"}, "[4]": {"test_system": "BHK21 cells", "conditions": "concentration as high as 50 μM, 24 h, 37 °C, CCK8"}, "[5]": {"test_system": "Vero cells", "conditions": "concentration as high as 50 μM, 24 h, 37 °C, CCK8"}, "[6]": {"conditions": "rat, in vivo, iv, 10 mg/kg"}, "[7]": {"test_system": "Huh7 cells", "conditions": "concentration as high as 50 μM, 24 h, 37 °C, CCK8"}, "[8]": {"test": "In vivo fluorescence imaging of distribution in pregnant ICR mice and fetuses"}, "[9]": {"test": "Safety of Z2 for pregnant ICR mice and fetuses", "type": "in vivo"}, "[10]": {"conditions": "SD rats, n=3, serum"}, "[11]": {"test_system": "ZIKV-infected BHK21 cells", "type": "binding, Zika virus", "conditions": "peer review file", "description": "Supplementary Figure 4: Binding of Z2-Cy5 to ZIKV-infected BHK21 cells. (a) Immunofluorescence staining assay.\nScale bar = 100 μm. (b) Flow cytometry assay. After the incubation of ZIKV or mock infected BHK21 cells with Z2-Cy5, the cells were washed five times and processed by a BD Accuri C6 Flow Cytometer.\nBHK21 cells. As shown in Supplementary Figure 4, E protein (green, stained by anti-E mAb 4G2) and Z2-Cy5 (red) overlapped and colocated together (Supplementary Figure 4A). In the flow cytometry assay (Supplementary Figure 4B), Z2-Cy5 bound with 63.5% […]\nZIKV-infected BHK21 cells.\nSupplementary Figure 4: Binding of Z2-Cy5 to ZIKV-infected BHK21 cells. (A) […]\nScale bar = 100 μm. (B) Flow cytometry assay. After the incubation of ZIKV- or mock- […]\nThe result was added to the revised manuscript: “Similar results were […]\nobtained from ZIKV-infected BHK21cells (Supplementary Figure 4).”\nThe related methods were added in the revised manuscript:\n“To test the binding of Z2 to ZIKV- infected BHK21 cells, BHK21 cells seeded in cover slips were ZIKV or mock infected, fixed with 4 % PFA, perforated by 0.2% Triton X-100 and blocked with 3% BSA. The cells were then incubated with anti-E mAb 4G2.\nAfter 5 washes, the cells were incubated with Alexa Fluor 488-labeled donkey anti-mouse antibody and Z2-Cy5 at RT for 1 h. […]"}, "[12]": {"test_system": "ZIKV", "test": "Plaque reduction assay in BHK21 cells", "type": "cell-based, Zika virus", "conditions": "n=3", "description": "Supplementary Figure 2: Plaque reduction assay to determine ZIKV infection in BHK21 cells. (a) Plaque reduction assay for Z2. ZIKV was incubated with Z2 or Z2-scr in diﬀerent concentrations for 1.5 h. Then the mixture was added to BHK21 cells seeded in 6-well plates. After 1.5 h, the viral inoculum was removed and 2.5 ml DMEM with 2% FBS and 1% low melting-point agarose overlaid the cells. Four to five days later, the cells were fixed with 4% PFA and stained with 1% crystal violet overnight. (b) Plaque reduction curves. Plaques were counted and percentage of plaque reduction was […]"}, "[13]": {"test_system": "YFV 17D", "conditions": "read-out: IC50, inhibition of YFV 17D infection; BHK21 cells"}, "[14]": {"test_system": "DENV-2", "conditions": "12 h"}, "[15]": {"test_system": "ZIKV virions", "test": "Sucrose density gradient assay", "conditions": "100 μM peptide in 1% DMSO or 1% Triton X-100, 37 °C 2 h"}, "[16]": {"conditions": "10-120 mg kg−1 i.v., before and 4 h, 1, 3, 5 days after third injection, P>0.05"}}, "note": "Where no end group is shown, it is not given here."}
{"substance": "MAVLGDTAWDFGSVGGALNSLGKGIHQIFGAAF [Z2] [listing 1 of 2 here]", "values": [{"measurement": "half-life", "setting": "[1]", "value": 2.77, "unit": "h"}, {"measurement": "cytotoxic effect on red blood cells (hemoglobin release)", "setting": "[2]", "value": "no cytotoxic effect"}, {"measurement": "distribution to genital organs (testis, seminal vesicle, epididymis)", "setting": "[3]", "value": "could distribute to the genital organs"}, {"measurement": "cytotoxic effect", "setting": "[4]", "value": "no cytotoxic effect"}, {"measurement": "cytotoxic effect", "setting": "[5]", "value": "no cytotoxic effect"}, {"measurement": "AUC(0-inf)", "setting": "[6]", "value": 557, "unit": "ng·h/mL"}, {"measurement": "AUC(0-t)", "setting": "[6]", "value": 548, "unit": "ng·h/mL"}, {"measurement": "Tmax", "setting": "[6]", "value": 0.25, "unit": "h"}, {"measurement": "cytotoxic effect", "setting": "[7]", "value": "no cytotoxic effect"}, {"measurement": "penetration of the placental barrier", "setting": "[8]; injected intravenously or intraperitoneally, pregnant ICR mice", "value": "can penetrate through the placental barrier"}, {"measurement": "average litter size of the offspring", "setting": "[9]; 10 mg kg−1 i.v. daily for 3 days, n=5, PBS 10.4±1.5", "value": "10.2±1.6"}, {"measurement": "average litter size of the offspring", "setting": "[9]; 20 mg kg−1 i.v. daily for 3 days, n=6", "value": "10.5±2.0"}, {"measurement": "average litter size of the offspring", "setting": "[9]; 40 mg kg−1 i.v. daily for 3 days, n=5", "value": "10.4±2.1"}, {"measurement": "average litter size of the offspring", "setting": "[9]; 80 mg kg−1 i.v. daily for 3 days, n=5", "value": "10.6±1.1"}, {"measurement": "average litter size of the offspring", "setting": "[9]; 120 mg kg−1 i.v. daily for 3 days, n=5", "value": "10.8±2.6"}, {"measurement": "safe dose relative to dose protecting against ZIKV in vivo", "setting": "[9]; 120 mg kg−1 versus 10 mg kg−1", "value": 11, "unit": "fold"}, {"measurement": "serum ALT versus PBS group", "setting": "[9]; [16]", "value": "no significant difference"}, {"measurement": "serum creatinine versus PBS group", "setting": "[9]; [16]", "value": "no significant difference"}, {"measurement": "histopathology (H&E) of livers, kidneys, brains, spleens of mothers and pups", "setting": "[9]; 10-120 mg kg−1 i.v., versus PBS", "value": "no pathological abnormality"}, {"measurement": "body weight changes of mothers and pups", "setting": "[9]; i.v. 10, 20, 40, 80, 120 mg kg−1 daily for 3 days versus PBS", "value": "almost the same among the six groups"}, {"measurement": "Kel, elimination constant", "setting": "[10]; 10 mg kg-1 i.v. tail vein, LC-MS/MS, noncompartmental", "value": 0.250, "unit": "h⁻¹"}, {"measurement": "Cmax", "setting": "[10]; 10 mg kg-1 i.v., concentration data dose-normalized", "value": 754.6, "unit": "ng/mL"}]}
{"substance": "Z2-Cy5: Z2 labeled with Cy5 (MAVLGDTAWDFGSVGGALNSLGKGIHQIFGAAF; also: Cy5 label, site not given here)", "values": [{"measurement": "ZIKV-infected BHK21 cells bound by Z2-Cy5 (flow cytometry)", "setting": "[11]", "value": 63.5, "unit": "%"}, {"measurement": "average radiant efficiency in uteruses versus PBS", "setting": "[8]; 100 μg i.v., 1 h, P=0.0148", "value": "significantly higher"}, {"measurement": "average radiant efficiency in liver versus PBS", "setting": "[8]; 100 μg i.v., 1 h, P=0.0275", "value": "significantly higher"}, {"measurement": "average radiant efficiency in bladder versus PBS", "setting": "[8]; 100 μg i.v., 1 h, P=0.0426", "value": "significantly higher"}, {"measurement": "average radiant efficiency in fetuses versus PBS", "setting": "[8]; 100 μg i.v., 1 h, n=9 fetuses, P<0.0001", "value": "significantly higher"}]}
{"substance": "MAVLGDTAWDFGSVGGALNSLGKGIHQIFGAAF [Z2] [listing 2 of 2 here]", "values": [{"measurement": "IC50", "setting": "[12]", "value": "2.61 ± 0.46", "unit": "µM"}, {"measurement": "IC50", "setting": "[13]", "value": "~5", "unit": "µM"}, {"measurement": "IC50", "setting": "[14]", "value": "~4", "unit": "µM"}]}
{"substance": "Triton X-100", "values": [{"measurement": "fraction with peak of viral genomic RNA", "setting": "[15]; RT-qPCR", "value": 1, "unit": "fraction No."}, {"measurement": "fraction with peak of E protein", "setting": "[15]; western blot", "value": 7, "unit": "fraction No."}]}
